Structures can show the parent of a compound that is named as a salt.
Biological target: T1, PD-L1/PD-1 complex formation (Homo sapiens, UniProt Q9NZQ7)
T1 construct: purchased BPS Bioscience
Experiment: PD-L1/PD-1 Interaction Assay (ELISA platform)
Format: binding
Details: human PD-1-Fc coated plates, PD-L1-Fc-biotin 0.1 μg/ml, compounds pre-incubated 2 hours
Protocol: The ability of compounds to block PD-L1/PD-1 complex formation was evaluated using biochemical interaction assay based on the ELISA platform.
EIA/RIA high binding 96-well plates (Costar) were coated with human PD-1-Fc protein diluted in PBS to 0.5 μg/ml overnight at 4° C. The PD-1-Fc coated plates were washed in PBST and blocked in blocking buffer (2% BSA in PBST). Serially diluted compounds were pre-incubated with PD-L1-Fc-biotin (0.1 μg/ml final) for 2 hours on a shaker at room temperature. The PD-1-Fc coated plates were washed with PBST and solutions containing PD-L1 and compounds were added to the plates. The PD-1-Fc coated plates were incubated with PD-L1 and compound solution for 2 hours on a shaker at room temperature. After the incubation unbound PD-L1 was washed away with PBST and plates were incubated with the blocking buffer for 10 minutes. The bound PD-L1-Fc-biotin was detected with streptavidin-HRP and TMB substrate. The plates were read at OD450 nm in a plate reader (i3 from Molecular Devices) and percentages of inhibition of PD-L1/PD-1 complex formation were calculated.
PD-1-Fc protein was made at Polaris and PD-L1-Fc was purchased from BPS Bioscience.

T1 sequence (Q9NZQ7 19-239 limits assumed, one chain of several): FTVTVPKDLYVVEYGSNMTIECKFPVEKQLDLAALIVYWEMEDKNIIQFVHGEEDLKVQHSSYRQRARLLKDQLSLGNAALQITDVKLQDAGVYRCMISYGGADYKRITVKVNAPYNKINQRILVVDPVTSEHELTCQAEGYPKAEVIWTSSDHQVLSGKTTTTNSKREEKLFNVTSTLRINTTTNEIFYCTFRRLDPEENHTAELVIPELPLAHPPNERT

Compound	IC50
COc1nc(OCc2cccc(-c3cccc(COc4ccc(CNCCNC(C)=O)c(OC)n4)c3C)c2C)ccc1CNCCNC(C)=O [Example 3, N,N′-(((((((2,2′-Dimethyl-[1,1′-biphenyl]-3,3′-diyl)bis(methylene))bis(oxy))bis(2-methoxypyridine-6,3-diyl))bis(methylene))bis(azanediyl))bis(ethane-2,1-diyl))diacetamide]	11 to 100 nM
Cc1c(COc2ccc(CN3CCCC[C@H]3C(=O)NCCO)cc2Br)cccc1-c1cccc(COc2ccc(CN3CCCC[C@H]3C(=O)NCCO)cc2Br)c1C [Example 24, (2S,2′S)-1,1′-(((((2,2′-Dimethyl-[1,1′-biphenyl]-3,3′-diyl)bis(methylene))bis(oxy))bis(3-bromo-4,1-phenylene))bis(methylene))bis(N-(2-hydroxyethyl)piperidine-2-carboxamide)]	110 to 1000 nM
C#Cc1cc(CN2CCCC[C@H]2C(=O)O)ccc1OCc1cccc(-c2cccc(COc3ccc(CN4CCCC[C@H]4C(=O)O)cc3C#C)c2C)c1C [Example 26, (2S,2′S)-1,1′-(((((2,2′-Dimethyl-[1,1′-biphenyl]-3,3′-diyl)bis(methylene))bis(oxy))bis(3-ethynyl-4,1-phenylene))bis(methylene))bis(piperidine-2-carboxylic acid) di-trifluoroacetic acid salt]	11 to 100 nM
CCc1cc(CN2CCCC[C@H]2C(=O)O)ccc1OCc1cccc(-c2cccc(COc3ccc(CN4CCCC[C@H]4C(=O)O)cc3CC)c2C)c1C [Example 27, (2S,2′S)-1,1′-(((((2,2′-Dimethyl-[1,1′-biphenyl]-3,3′-diyl)bis(methylene))bis(oxy))bis(3-ethyl-4,1-phenylene))bis(methylene))bis(piperidine-2-carboxylic acid) di-trifluoroacetic acid salt]	110 to 1000 nM
CSc1cc(CN2CCCC[C@H]2C(=O)O)ccc1OCc1cccc(-c2cccc(COc3ccc(CN4CCCC[C@H]4C(=O)O)cc3SC)c2C)c1C [Example 28, (2S,2′S)-1,1′-(((((2,2′-Dimethyl-[1,1′-biphenyl]-3,3′-diyl)bis(methylene))bis(oxy))bis(3-(methylthio)-4,1-phenylene))bis(methylene))bis(piperidine-2-carboxylic acid) di-trifluoroacetic acid salt]	110 to 1000 nM
Cc1c(COc2ccc(CN(CC(=O)O)CC(=O)O)cc2Br)cccc1-c1cccc(COc2ccc(CN(CC(=O)O)CC(=O)O)cc2Br)c1C [Example 30, 2,2′,2″,2′″-((((((2,2′-Dimethyl-[1,1′-biphenyl]-3,3′-diyl)bis(methylene))bis(oxy))bis(3-bromo-4,1-phenylene))bis(methylene))bis(azanetriyl))tetraacetic acid di-trifluoroacetic acid salt]	110 to 1000 nM
Cc1c(COc2ccc(CN(CCO)CCO)cc2Br)cccc1-c1cccc(COc2ccc(CN(CCO)CCO)cc2Br)c1C [Example 31, 2,2′,2″,2′″-((((((2,2′-Dimethyl-[1,1′-biphenyl]-3,3′-diyl)bis(methylene))bis(oxy))bis(3-bromo-4,1-phenylene))bis(methylene))bis(azanetriyl))tetrakis(ethan-1-ol) di-trifluoroacetic acid salt]	11 to 100 nM
Cc1c(COc2ccc(CNC(C)(CO)CO)cc2Br)cccc1-c1cccc(COc2ccc(CNC(C)(CO)CO)cc2Br)c1C [Example 33, 2,2′-((((((2,2′-Dimethyl-[1,1′-biphenyl]-3,3′-diyl)bis(methylene))bis(oxy))bis(3-bromo-4,1-phenylene))bis(methylene))bis(azanediyl))bis(2-methylpropane-1,3-diol) di-trifluoroacetic acid salt]	0.1 to 10 nM

Next, values leading:

IC50	Compound
11 to 100 nM	Cc1c(COc2ccc(CN3CCCC[C@@H]3C(=O)O)cc2Br)cccc1-c1cccc(COc2ccc(CN3CCCC[C@@H]3C(=O)O)cc2Br)c1C [Example 2, (2R,2′R)-1,1′-(((((2,2′-dimethyl-[1,1′-biphenyl]-3,3′-diyl)bis(methylene))bis(oxy))bis(3-bromo-4,1-phenylene))bis(methylene))bis(piperidine-2-carboxylic acid)]
> 30000 nM	COC(=O)[C@@H]1CCCCN1Cc1ccc(OCc2cccc(-c3cccc(COc4ccc(CN5CCCC[C@H]5C(=O)OC)cc4Br)c3C)c2C)c(Br)c1 [Example 4, Dimethyl 1,1′-(((((2,2′-dimethyl-[1,1′-biphenyl]-3,3′-diyl)bis(methylene))bis(oxy))bis(3-bromo-4,1-phenylene))bis(methylene))(2S,2′S)-bis(piperidine-2-carboxylate)]
0.1 to 10 nM	Cc1c(COc2ccc(CNCCO)cc2Br)cccc1-c1cccc(COc2ccc(CNCCO)cc2Br)c1C [Example 5, 2,2′-((((((2,2′-Dimethyl-[1,1′-biphenyl]-3,3′-diyl)bis(methylene))bis(oxy))bis(3-bromo-4,1-phenylene))bis(methylene))bis(azanediyl))bis(ethan-1-ol) di-trifluoroacetic acid salt]
0.1 to 10 nM	Cc1c(COc2ccc(CNC(C)(C)C(=O)O)cc2Br)cccc1-c1cccc(COc2ccc(CNC(C)(C)C(=O)O)cc2Br)c1C [Example 14, 2,2′-((((((2,2′-Dimethyl-[1,1′-biphenyl]-3,3′-diyl)bis(methylene))bis(oxy))bis(3-bromo-4,1-phenylene))bis(methylene))bis(azanediyl))bis(2-methylpropanoic acid) di-trifluoroacetic acid salt]
0.1 to 10 nM	Cc1c(COc2ccc(CN[C@@H](C)C(=O)O)cc2Br)cccc1-c1cccc(COc2ccc(CN[C@@H](C)C(=O)O)cc2Br)c1C [Example 15, (2S,2′S)-2,2′-((((((2,2′-Dimethyl-[1,1′-biphenyl]-3,3′-diyl)bis(methylene))bis(oxy))bis(3-bromo-4,1-phenylene))bis(methylene))bis(azanediyl))dipropionic acid di-trifluoroacetic acid salt]
11 to 100 nM	Cc1c(COc2ccc(CN[C@H](C)C(=O)O)cc2Br)cccc1-c1cccc(COc2ccc(CN[C@H](C)C(=O)O)cc2Br)c1C [Example 16, (2R,2′R)-2,2′-((((((2,2′-Dimethyl-[1,1′-biphenyl]-3,3′-diyl)bis(methylene))bis(oxy))bis(3-bromo-4,1-phenylene))bis(methylene))bis(azanediyl))dipropionic acid di-trifluoroacetic acid salt]
0.1 to 10 nM	Cc1c(COc2ccc(CN[C@H](CO)C(=O)O)cc2Br)cccc1-c1cccc(COc2ccc(CN[C@H](CO)C(=O)O)cc2Br)c1C [Example 17, (2R,2′R)-2,2′-((((((2,2′-Dimethyl-[1,1′-biphenyl]-3,3′-diyl)bis(methylene))bis(oxy))bis(3-bromo-4,1-phenylene))bis(methylene))bis(azanediyl))bis(3-hydroxypropanoic acid) di-trifluoroacetic acid salt]
0.1 to 10 nM	Cc1c(COc2ccc(CN[C@@H](C(=O)O)[C@H](C)O)cc2Br)cccc1-c1cccc(COc2ccc(CN[C@@H](C(=O)O)[C@H](C)O)cc2Br)c1C [Example 18, (2R,2′R,3S,3′S)-2,2′-((((((2,2′-Dimethyl-[1,1′-biphenyl]-3,3′-diyl)bis(methylene))bis(oxy))bis(3-bromo-4,1-phenylene))bis(methylene))bis(azanediyl))bis(3-hydroxybutanoic acid) di-trifluoroacetic acid salt]
1010 to 30000 nM	Cc1c(COc2ccc(CN3CCCC[C@H]3C(N)=O)cc2Br)cccc1-c1cccc(COc2ccc(CN3CCCC[C@H]3C(N)=O)cc2Br)c1C [Example 23, (2S,2′S)-1,1′-(((((2,2′-Dimethyl-[1,1′-biphenyl]-3,3′-diyl)bis(methylene))bis(oxy))bis(3-bromo-4,1-phenylene))bis(methylene))bis(piperidine-2-carboxamide)]
1010 to 30000 nM	Cc1c(COc2ccc(CN3CCCC[C@H]3C(=O)NCCN(C)C)cc2Br)cccc1-c1cccc(COc2ccc(CN3CCCC[C@H]3C(=O)NCCN(C)C)cc2Br)c1C [Example 25, (2S,2′S)-1,1′-(((((2,2′-Dimethyl-[1,1′-biphenyl]-3,3′-diyl)bis(methylene))bis(oxy))bis(3-bromo-4,1-phenylene))bis(methylene))bis(N-(2-(dimethylamino)ethyl)piperidine-2-carboxamide)]
0.1 to 10 nM	Cc1c(COc2ccc(CN3CCCC[C@H]3C(=O)O)cc2C(F)F)cccc1-c1cccc(COc2ccc(CN3CCCC[C@H]3C(=O)O)cc2C(F)F)c1C [Example 29, (2S,2′S)-1,1′-(((((2,2′-Dimethyl-[1,1′-biphenyl]-3,3′-diyl)bis(methylene))bis(oxy))bis(3-(difluoromethyl)-4,1-phenylene))bis(methylene))bis(piperidine-2-carboxylic acid) di-trifluoroacetic acid salt]
0.1 to 10 nM	Cc1c(COc2ccc(CNC(CO)CO)cc2Br)cccc1-c1cccc(COc2ccc(CNC(CO)CO)cc2Br)c1C [Example 32, 2,2′-((((((2,2′-Dimethyl-[1,1′-biphenyl]-3,3′-diyl)bis(methylene))bis(oxy))bis(3-bromo-4,1-phenylene))bis(methylene))bis(azanediyl))bis(propane-1,3-diol) di-trifluoroacetic acid salt]

Source: patent US20180065917A1, “IMMUNE CHECKPOINT INHIBITORS, COMPOSITIONS AND METHODS THEREOF” (Polaris Pharmaceuticals, Inc., priority 2016, published 2018)
